Measured values reported in US20230406885A1, “CYCLIC PEPTIDES FOR TRAPPING INTERLEUKIN-1 BETA” (MERCK SHARP & DOHME LLC, priority 2022, published 2023).
*1 amine or outer side, *2 acyl side, *3 side chain or, on linkers, in order; H or OH if unused. Where a SMILES comes first, the peptide text is derived from it. [ ]: non-standard residue; d: D form. Bip(4'-COOH) = N[C@@H](Cc1ccc(-c2ccc(C(=O)O)cc2)cc1)C(=O)O; 1Nal(3S-Me) = C[C@@H](c1cccc2ccccc12)[C@H](N)C(=O)O; hPhe(4-CF3) = N[C@@H](CCc1ccc(C(F)(F)F)cc1)C(=O)O; X8 = O=C([C@H](CCc1cccc(C(F)(F)F)c1)N[*:1])[*:2]; X13 = O=C([C@H](CCc1ccccc1C(F)(F)F)N[*:1])[*:2]; Phe(4-COOH) = N[C@@H](Cc1ccc(C(=O)O)cc1)C(=O)O; h3Pal(5-CN) = N#Cc1cncc(CC[C@H](N)C(=O)O)c1; Pro(4R-NH2) = N[C@H]1CN[C@H](C(=O)O)C1; Ala(4-THP) = N[C@@H](CC1CCOCC1)C(=O)O; AEF = NCCOc1ccc(C[C@H](N)C(=O)O)cc1; 4Pal = N[C@@H](Cc1ccncc1)C(=O)O; dDab = NCC[C@@H](N)C(=O)O; dNMeA = CN[C@H](C)C(=O)O

Molecular target: T1, Recombinant human IL-1β (Homo sapiens, UniProt P01584)
T1 construct: purchased BioLegend 579404
T1 sequence (P01584 117-269): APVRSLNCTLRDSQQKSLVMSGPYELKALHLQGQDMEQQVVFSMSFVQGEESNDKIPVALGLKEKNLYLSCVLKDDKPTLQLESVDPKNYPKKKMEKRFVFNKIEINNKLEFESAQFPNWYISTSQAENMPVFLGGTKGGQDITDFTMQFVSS
Test: IL-6 assay in MRC5 cells: inhibition of IL-1β induced IL-6 secretion (AlphaLISA)
Assay type: cell-based
Conditions: inhibition of IL-1β induced IL-6 secretion in MRC5 cells; IL-1β pre-incubated 1 hour with compound; read-out: MRC5 IC50
Method in brief: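 IL-1β at 2×EC80 in seeding medium (EMEM, 0.025% BSA) preincubated 1 h at ambient temperature with compound, then 3000 MRC5 cells/well added and incubated overnight at 37 °C, 5% CO2. IL-6 in conditioned medium quantified by AlphaLISA; IC50 from 4-parameter logistic fit.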

SMILES | IC50 [nM]
CC(=O)NCCOc1ccc(C[C@@H]2NC(=O)[C@H](CCc3cncc(C#N)c3)NC(=O)[C@@H](CCN)NC(=O)CNC(=O)[C@H](Cc3ccncc3)NC(=O)[C@H](Cc3ccc(-c4ccc(C(=O)O)cc4)cc3)NC(=O)CNC(=O)[C@@H](C)N(C)C(=O)[C@H](CC(=O)O)NC(=O)[C@H]([C@@H](C)c3cccc4ccccc34)NC(=O)[C@@H]3C[C@@H](N)CN3C(=O)CNC(=O)[C@H](Cc3ccc(C(=O)O)cc3)NC(=O)[C@H](Cc3c[nH]c4ccccc34)NC2=O)cc1 [Example 102] (cyclo([AEF](Ac)W[Phe(4-COOH)]G[Pro(4R-NH2)][1Nal(3S-Me)]D[dNMeA]G[Bip(4'-COOH)][4Pal]G[dDab][h3Pal(5-CN)])) | 0.0421
CC(=O)NCCOc1ccc(C[C@@H]2NC(=O)[C@H](CCc3ccccc3C(F)(F)F)NC(=O)[C@@H](C)NC(=O)[C@H](CO)NC(=O)[C@H](Cc3ccncc3)NC(=O)[C@H](Cc3ccc(-c4ccc(C(=O)O)cc4)cc3)NC(=O)CNC(=O)[C@@H](C)N(C)C(=O)[C@H](CC(=O)O)NC(=O)[C@H]([C@@H](C)c3cccc4ccccc34)NC(=O)[C@@H]3C[C@@H](N)CN3C(=O)CNC(=O)[C@H](Cc3ccc(C(=O)O)cc3)NC(=O)[C@H](Cc3c[nH]c4ccccc34)NC2=O)cc1 [Example 103] (cyclo([AEF](Ac)W[Phe(4-COOH)]G[Pro(4R-NH2)][1Nal(3S-Me)]D[dNMeA]G[Bip(4'-COOH)][4Pal]S[dA][X13])) | 0.066
CC(=O)NCCOc1ccc(C[C@@H]2NC(=O)[C@H](CCc3cccc(C(F)(F)F)c3)NC(=O)[C@@H](C)NC(=O)[C@H](CO)NC(=O)[C@H](Cc3ccncc3)NC(=O)[C@H](Cc3ccc(-c4ccc(C(=O)O)cc4)cc3)NC(=O)CNC(=O)[C@@H](C)N(C)C(=O)[C@H](CC(=O)O)NC(=O)[C@H]([C@@H](C)c3cccc4ccccc34)NC(=O)[C@@H]3C[C@@H](N)CN3C(=O)CNC(=O)[C@H](Cc3ccc(C(=O)O)cc3)NC(=O)[C@H](Cc3c[nH]c4ccccc34)NC2=O)cc1 [Example 104] (cyclo([AEF](Ac)W[Phe(4-COOH)]G[Pro(4R-NH2)][1Nal(3S-Me)]D[dNMeA]G[Bip(4'-COOH)][4Pal]S[dA][X8])) | 0.041
CC(=O)NCCOc1ccc(C[C@@H]2NC(=O)[C@H](CCc3ccc(C(F)(F)F)cc3)NC(=O)[C@@H](C)NC(=O)[C@H](CO)NC(=O)[C@H](Cc3ccncc3)NC(=O)[C@H](Cc3ccc(-c4ccc(C(=O)O)cc4)cc3)NC(=O)CNC(=O)[C@@H](C)N(C)C(=O)[C@H](CC(=O)O)NC(=O)[C@H]([C@@H](C)c3cccc4ccccc34)NC(=O)[C@@H]3C[C@@H](N)CN3C(=O)CNC(=O)[C@H](Cc3ccc(C(=O)O)cc3)NC(=O)[C@H](Cc3c[nH]c4ccccc34)NC2=O)cc1 [Example 105] (cyclo([AEF](Ac)W[Phe(4-COOH)]G[Pro(4R-NH2)][1Nal(3S-Me)]D[dNMeA]G[Bip(4'-COOH)][4Pal]S[dA][hPhe(4-CF3)])) | 0.091
CC(=O)NCCOc1ccc(C[C@@H]2NC(=O)[C@H](CCc3cncc(C#N)c3)NC(=O)[C@@H](CCN)NC(=O)CNC(=O)[C@H](CC3CCOCC3)NC(=O)[C@H](Cc3ccc(-c4ccc(C(=O)O)cc4)cc3)NC(=O)CNC(=O)[C@@H](C)N(C)C(=O)[C@H](CC(=O)O)NC(=O)[C@H]([C@@H](C)c3cccc4ccccc34)NC(=O)[C@@H]3C[C@@H](N)CN3C(=O)CNC(=O)[C@H](Cc3ccc(C(=O)O)cc3)NC(=O)[C@H](Cc3c[nH]c4ccccc34)NC2=O)cc1 [Example 106] (cyclo([AEF](Ac)W[Phe(4-COOH)]G[Pro(4R-NH2)][1Nal(3S-Me)]D[dNMeA]G[Bip(4'-COOH)][Ala(4-THP)]G[dDab][h3Pal(5-CN)])) | 0.0263
